Measurements taken from patent US5100874A, “Hydroxamic acid tetrapeptide derivatives” (Fuji Yakuhin Kogyo Kabushiki Kaisha, priority 1987, dated 1992).
Where two headings read alike, the source gives them in different places. Square brackets hold non-standard residues; d marks the D form. Peptide text beside a SMILES is read from it. * marks the point of attachment. Benzoyl(4-OH) = O=C(c1ccc(O)cc1)*; 4Abz = Nc1ccc(C(=O)O)cc1; Boc = CC(C)(C)OC(=O)*; Bz = O=C(c1ccccc1)*; NHOH = ON*

Tests used:
[1] = test system: bacteria (Clostridium)-derived collagenase; experiment: Inhibitory activity against bacteria (Clostridium)-derived collagenase (method of Nagai, FITC-derivatized bovine type I collagen); assay type: biochemical
Protocol: (§1) (1) Inhibitory activity against collagenases
(§2) The inhibitory activity against human fibroblast collagenase (collagenase derived from human fibroblasts), tadpole-derived collagenase and bacteria (Clostridium)-derived collagenase was assayed in accordance with the method of Nagai [see Ensho, 4(2), 123 (1984)] using a fluorescence-labeledcollagen (FITC-derivatized bovine type I collagen).

thermolysin = target: T1, thermolysin (Bacillus thermoproteolyticus, UniProt P00800); experiment: Inhibitory activity against thermolysin (method of Laskowski, thermally denatured casein substrate); assay type: biochemical; conditions: for inhibition at 4000 µM: at 4.0 × 10^-3 M
T1 sequence (P00800 233-548): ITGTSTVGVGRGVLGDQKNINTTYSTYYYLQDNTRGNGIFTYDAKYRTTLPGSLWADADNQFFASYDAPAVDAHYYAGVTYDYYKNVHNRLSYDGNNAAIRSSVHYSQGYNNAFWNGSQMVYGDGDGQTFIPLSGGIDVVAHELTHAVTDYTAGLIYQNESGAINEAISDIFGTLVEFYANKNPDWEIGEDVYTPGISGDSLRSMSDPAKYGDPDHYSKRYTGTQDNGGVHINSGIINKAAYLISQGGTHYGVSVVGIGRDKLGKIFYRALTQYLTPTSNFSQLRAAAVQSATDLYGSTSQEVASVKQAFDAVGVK
Protocol: (§3) (3) Inhibitory activity against thermolysin, trypsin and α-chymotrypsin
(§4) This was assayed in accordance with the method of Laskowski [see Meth. Enzymol., 2, 8 (1955)] using a thermally denatured casein as substrate for the respective enzymes (i.e. thermolysin, trypsin and α-chymotrypsin).

[2] = test system: sword bean-derived urease; experiment: Inhibitory activity against urease (method of Kobashi et al.); assay type: biochemical; conditions: at 4.0 × 10^-3 M
Protocol: (2) Inhibitory activity against urease
The inhibitory activity against urease was assayed in accordance with the method of Kobashi et al. [see Biochem. Biophys.

α-chymotrypsin = α-chymotrypsin (Bos taurus, UniProt P00766); experiment: Inhibitory activity against α-chymotrypsin (method of Laskowski, thermally denatured casein substrate); assay type: biochemical; conditions: for inhibition at 4000 µM: at 4.0 × 10^-3 M
Protocol: as §3, §4

[3] = target: T2, human fibroblast collagenase (Homo sapiens, UniProt P03956); experiment: Inhibitory activity against human fibroblast collagenase (method of Nagai, FITC-derivatized bovine type I collagen); assay type: biochemical
T2 construct: collagenase derived from human fibroblasts; from tissue; host or cells: human fibroblasts
T2 sequence (P03956 100-469): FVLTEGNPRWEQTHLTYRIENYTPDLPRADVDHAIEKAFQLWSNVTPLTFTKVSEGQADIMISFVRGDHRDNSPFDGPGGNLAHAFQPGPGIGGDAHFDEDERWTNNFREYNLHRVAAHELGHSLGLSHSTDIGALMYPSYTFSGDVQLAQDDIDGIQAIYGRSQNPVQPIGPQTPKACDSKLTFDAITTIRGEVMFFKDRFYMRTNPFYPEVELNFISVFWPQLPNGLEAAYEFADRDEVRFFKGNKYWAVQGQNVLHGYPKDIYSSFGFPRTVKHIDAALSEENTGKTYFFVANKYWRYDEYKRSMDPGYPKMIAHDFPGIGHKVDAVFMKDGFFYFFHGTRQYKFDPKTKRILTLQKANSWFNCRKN
Protocol: as §1, §2

mice = experiment: Acute toxicity test (LD50) in mice; assay type: in vivo
Description: The toxicity of the new peptide compounds of this invention is as follows:
Acute toxicity test (LD50) in mice

trypsin = experiment: Inhibitory activity against trypsin (method of Laskowski, thermally denatured casein substrate); assay type: biochemical
Protocol: as §3, §4

[4] = target: T3, tadpole-derived collagenase (Aquarana catesbeiana, UniProt Q11133); experiment: biochemical
T3 construct: collagenase from tadpoles; from tissue
T3 sequence (Q11133 89-384): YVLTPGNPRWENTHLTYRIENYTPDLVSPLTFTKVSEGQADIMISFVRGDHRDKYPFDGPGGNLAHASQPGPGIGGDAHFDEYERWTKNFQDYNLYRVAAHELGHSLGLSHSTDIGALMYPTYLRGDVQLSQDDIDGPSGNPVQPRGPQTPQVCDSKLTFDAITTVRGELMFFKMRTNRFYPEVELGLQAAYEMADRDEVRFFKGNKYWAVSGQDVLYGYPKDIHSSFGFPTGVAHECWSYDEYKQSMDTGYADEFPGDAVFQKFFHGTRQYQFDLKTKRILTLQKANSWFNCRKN
Protocol: as §1, §2

[5] = read-out: IC50 Human fibroblast collagenase

Structure (SMILES)	inhibition at 4000 µM (thermolysin) [%]	IC50 [3, 5] [µM]	LD50 Intraperitoneal administration (mice) [mg/kg]	LD50 Intravenous administration (mice) [mg/kg]	IC50 [4] [µM]	further results
CC(C)C[C@@H](NC(=O)[C@@H]1CCCN1C(=O)CNC(=O)c1ccc(N)cc1)C(=O)N[C@H](C)C(=O)NO [Example 6] (H-[4Abz]GP[dL][dA]-{NHOH}; N-terminus and C-terminus assumed)	26.8	1.28	> 2000	> 200		Inhibition (%) Bacterial collagenase ([1]; at 2.0 × 10^-4 M): 7.1%; Inhibition (%) Urease [2]: 2.0%; inhibition at 2000 µM (α-chymotrypsin; at 2.0 × 10^-3 M): 26.4%; Inhibition (%) Trypsin (trypsin; at 2.0 × 10^-3): 6.5%
CC(C)C[C@@H](NC(=O)[C@@H]1CCCN1C(=O)CNC(=O)c1ccc(O)cc1)C(=O)N[C@H](C)C(=O)NO [Example 7, p-Hydroxybenzoyl-glycyl-L-prolyl-D-leucyl-D-alanylhydroxamic acid] ({Benzoyl(4-OH)}-GP[dL][dA]-{NHOH})	60.4	1.18	> 2000	> 200	1.05	inhibition at 4000 µM (α-chymotrypsin): 22.3%
CC(C)C[C@H](NC(=O)[C@@H]1CCCN1C(=O)CNC(=O)OC(C)(C)C)C(=O)N[C@H](C(=O)NO)C(C)C [Example 18, BocGlyProLeuValNHOH] (Boc-GPLV-{NHOH})		3.1			9.8	inhibition at 10100 µM (thermolysin; at 1.01 × 10^-2 M): 50%; inhibition at 4000 µM (α-chymotrypsin): 0%
CC(C)C[C@H](NC(=O)[C@@H]1CCCN1C(=O)CNC(=O)c1ccccc1)C(=O)N[C@@H](C)C(=O)NO [Example 34, BzGlyProLeuAlaNHOH] (Bz-GPLA-{NHOH})	35				7.7	inhibition at 200 µM (α-chymotrypsin; at 2.0 × 10^-4 M): 0%; IC50 [3]: 2.7 µM
CC(C)C[C@@H](NC(=O)[C@@H]1CCCN1C(=O)CNC(=O)c1ccccc1)C(=O)N[C@H](C)C(=O)NO [Example 35, BzGlyPro-D-Leu-D-AlaNHOH] (Bz-GP[dL][dA]-{NHOH})	38				3.1	inhibition at 100 µM (α-chymotrypsin; at 1.0 × 10^-4 M): 12.8%; IC50 [3]: 6.4 µM
CC(C)C[C@@H](NC(=O)[C@@H](CC(C)C)NC(=O)[C@@H]1CCCN1C(=O)CN1C(=O)c2ccccc2C1=O)C(=O)NO [Example 40, PTHGlyPro-D-Leu-D-LeuNHOH]	32.2	3.6				IC50 ([4]; read-out: IC50 Tadpole collagenase): 3.1 µM; Inhibition (%) Bacterial collagenase ([1]; at 4.0 × 10^-3 M): 20.7%; Inhibition (%) Urease [2]: 3.3%; inhibition at 10000 µM (α-chymotrypsin; at 1.0 × 10^-2 M): 22.3%; Inhibition (%) Trypsin (trypsin; at 1.0 × 10^-2): 21.6%
CC(C)C[C@H](NC(=O)[C@@H]1CCCN1C(=O)CNC(=O)c1ccc(N)cc1)C(=O)N[C@@H](C)C(=O)NO [Example 41, AcOH.ABAGlyProLeuAlaNHOH] (H-[4Abz]GPLA-{NHOH})		3.7	> 2000	> 200	4	inhibition at 20 µM (thermolysin; at 2.0 × 10^-5 M): 4%; inhibition at 20 µM (α-chymotrypsin; at 2.0 × 10^-5 M): 27.3%
